Data as given in US20250049970A1, “DLL3 TARGETING PEPTIDES AND CONSTRUCTS THEREOF” (MARIANA ONCOLOGY INC., priority 2023, published 2025).
*1 amine or outer side, *2 acyl side, *3 side chain or, on linkers, in order; H or OH if unused. Where a SMILES comes first, the peptide text is derived from it. Bridges are numbered along the chain shown (N, C = ends). [ ]: non-standard residue; d: D form. The star is where a group is joined. Ala(piperidin-4-yl) = O=C([C@H](CC1CCN([*:3])CC1)N[*:1])[*:2]; DOTA = O=C(O)CN1CCN(CC(=O)O)CCN(CC(=O)*)CCN(CC(=O)O)CC1; X1 = O=CCN1CCN(CC(=O)O)CCN(CC(=O)*)CCN(CC(=O)O)CC1; 2Nal = N[C@@H](Cc1ccc2ccccc2c1)C(=O)O; tBuAla = CC(C)(C)C[C@H](N)C(=O)O; Chg = N[C@H](C(=O)O)C1CCCCC1; Tle = CC(C)(C)[C@H](N)C(=O)O

Experiments:
CT26.DLL3 cells [1] = assay: Cell binding (total uptake) of [177Lu]Lu-labeled peptide, CT26.DLL3 cells; format: cell-based; settings: 1 h, 37° C.
Procedure: (§1) [^177Lu]LuCl3 was received from venders in HCl solution. For every mCi of [^177Lu]LuCl3 added to the reaction vial (1.5 mL Eppendorf vial), ammonium acetate buffer (0.2 M, pH 4.9, 100 μL, containing 1% w/v ascorbic acid and 6% v/v ethanol) and peptide conjugate (1 nmol; also referred to herein as “chelator-peptides”) was added. The pH of the solution was determined to be approximately 5 by using pH strips. The reaction vial was incubated at 80° C., 700 RPM for 17-20 minutes. A sample from the reaction was analyzed by RP-HPLC using an Agilent Infinity II 1260 HPLC to determine reaction completion and radiochemical purity of [^177Lu]Lu-chelator-peptides. HPLC conditions: Waters XBridge BEH C18 Column, 130A, 3.5 μm, 4.6 mm×250 mm; mobile phase: Solvent A=water (with 0.1% formic acid), solvent B=acetonitrile (with 0.1% formic acid). Gradients: 25-45% B in 10 minutes, 45-65% B in 12 minutes, 65-90% in 6 minutes at a flow rate of 0.5 mL/minutes Required amounts of the product was formulated in 1% PBSA for cell studies.
(§2) The study was conducted using SHP-77, CT26.WT, CT26.DLL3, and HEK293.DLL3 cells (Table 9)
(§3) Adherent cell studies: The cells were cultured in appropriate culture media (20 mL) in tissue culture treated T150 flasks at 37° C. and 5% C02. Adherent cells were detached (60-70% confluent) using 5 mL Versene at 37° C. for 3 minutes. After confirming the viability using countess and count of detached cells using Trypan blue, the cells were centrifuged at 4° C. for 5 minutes (1,000 rpm). The cell pellet obtained was washed once with PBS and resuspended in 1% PBSA to obtain the desired cell concentration (5-25 million cells/mL).
(§4) Cell numbers used for the assay were in the range of 5 million cells/condition-25 million cells/condition.
(§5) Total uptake: Cells were incubated with 300 μL (0.8 μCi) of the incubation buffer (containing radiolabeled peptide [^177Lu]Lu-test peptide) for 1 hour at 37° C. (Table 10). Post incubation, the cells were pelleted and washed 2 times using cold PBS+1% BSA. The supernatant and washes were combined and counted together as “unbound fraction” in a gamma counter. The cells were then resuspended in 300 μL of 1% PBS+1% BSA and counted in the gamma counter as “bound fraction”.
(§6) In these Tables, “A” represents % s ≤25; “B” represents 25 <% ≤50; “C” represents % >50.

CT26.DLL3 cells [2] = assay: Internalization of [177Lu]Lu-labeled peptide, CT26.DLL3 cells; format: cell-based; settings: 1 h, 37° C.
Procedure: as §1, §2, §3, §4
(§7) Internalization: The resuspended cells in 300 μL of 1% PBSA and counted in the gamma counter as “bound fraction” were collected in 1.5 mL Eppendorf tube and pelleted. The pelleted cells were incubated with 300 μL of 50 mM Glycine pH=2.5 for 3 minutes and then pelleted discarding the supernatant. This process was repeated one more time. The pelleted cells were washed with 300 μL of cold 1% PBSA and then resuspended in 300 μl 0.3M NaOH. This was counted in the gamma counter as “internalized fraction”.
as §6

SHP-77 cells [3] = assay: Cell binding (total uptake) of [177Lu]Lu-labeled peptide, SHP-77 cells; format: cell-based; settings: 1 h, 37° C.
Procedure: as §1, §2, §3
as §3, with “Suspension” for “Adherent”, “CO2.” for “C02. Adherent cells were detached (60-70% confluent) using 5 mL Versene at 37° C. for 3 minutes.”, “viability” for “viability using countess”
as §4, §5, §6

SHP-77 cells [4] = assay: Internalization of [177Lu]Lu-labeled peptide, SHP-77 cells; format: cell-based; settings: 1 h, 37° C.
Procedure: as §1, §2, §3
as §3, with “Suspension” for “Adherent”, “CO2.” for “C02. Adherent cells were detached (60-70% confluent) using 5 mL Versene at 37° C. for 3 minutes.”, “viability” for “viability using countess”
as §4, §7, §6

[5] = system: nude mice bearing SHP-77 tumors; assay: Ex vivo biodistribution of radiolabeled peptides (% IA/g) in nude mice bearing SHP-77 tumors; settings: [177Lu]Lu labelling, 24 hours post-injection, intravenous
Procedure: Mice were intravenously injected (via the lateral tail vein) with a bolus dose of the radiolabeled peptides for ex vivo biodistribution studies when tumor volumes were in range of 200-400 mm^3 for xenograft mice and when age of the mice was 5-7 weeks for tumor naïve mice studies. To assess the amount of radionuclide injected into individual mice the syringe was assayed in a dose calibrator before and after injection for [^177Lu]Lu-peptide, then the injected dose was determined from the weight difference and concentration of the radionuclide solution.
Mice were euthanized at pre-determined time points and selected tissues were resected and collected into pre-weighed tubes. The tubes were then reweighed post resection, the difference giving the weight of each tissue. Radioactivity in each tissue was measured using a gamma counter. Counts were decay corrected to the time of injection and percentage of injected activity per gram (% IA/g) was calculated for each tissue based on the injected activity into each individual mouse. Injected activity was converted to counts based on the sensitivity of the gamma counter. The counts in tissue were then converted to the percentage of injected activity and this was divided by the mass of tissue to give % IA/g.

DLL3 = molecular target: T1, DLL3 (Homo sapiens, UniProt Q9NYJ7); assay: SPR KD, biotinylated human DLL3 on streptavidin chip (Table 8); set-up: biotin (biotinylated); settings: biotinylated human DLL3 on streptavidin sensor chip, 25° C., 1:1 binding model; read-out: SPR KD
T1 sequence (Q9NYJ7 27-618): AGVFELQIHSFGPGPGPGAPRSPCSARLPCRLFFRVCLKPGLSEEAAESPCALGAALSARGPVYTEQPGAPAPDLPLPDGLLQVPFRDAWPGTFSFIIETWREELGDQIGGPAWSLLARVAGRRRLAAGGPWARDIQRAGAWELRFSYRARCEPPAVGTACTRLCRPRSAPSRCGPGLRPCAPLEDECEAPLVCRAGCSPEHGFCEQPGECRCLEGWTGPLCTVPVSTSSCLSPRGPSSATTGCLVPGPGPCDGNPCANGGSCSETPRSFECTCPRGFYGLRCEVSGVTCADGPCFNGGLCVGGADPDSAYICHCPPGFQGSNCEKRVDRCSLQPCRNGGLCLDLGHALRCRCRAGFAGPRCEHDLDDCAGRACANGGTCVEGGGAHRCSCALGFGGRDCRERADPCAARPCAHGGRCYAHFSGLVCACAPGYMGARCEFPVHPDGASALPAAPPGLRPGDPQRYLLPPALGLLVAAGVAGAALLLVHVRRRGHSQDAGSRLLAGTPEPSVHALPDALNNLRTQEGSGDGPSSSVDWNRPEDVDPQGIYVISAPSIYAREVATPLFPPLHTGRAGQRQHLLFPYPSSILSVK
Text: Biotinylated target ligand human DLL3 was immobilized on a streptavidin sensor chip. A reference surface was set up for nonspecific binding and refractive index changes. […] Sensorgram curves were fitted with 1:1 binding model, and affinity and kinetic parameters were obtained using Biacore Insight evaluation 4.0. software.

SMILES: CC[C@H](C)[C@H](NC(=O)[C@@H](NC(=O)[C@H](Cc1c[nH]c2ccccc12)NC(C)=O)[C@@H](C)O)C(=O)N[C@H]1CSSC[C@@H](C(=O)N[C@@H](Cc2c[nH]c3ccccc23)C(=O)N2CCC[C@H]2C(N)=O)NC(=O)[C@H](CC(=O)O)NC(=O)[C@H](Cc2cnc[nH]2)NC(=O)[C@H](Cc2ccc3ccccc3c2)NC(=O)[C@H](CC(N)=O)NC(=O)[C@H](CCCCNC(=O)CN2CCN(CC(=O)O)CCN(CC(=O)O)CCN(CC(=O)O)CC2)NC1=O [compound 249, Ac-W-T-I-C(3)-Lys(DOTA)-N-(2Nal)-H-D-C(3)-W-P-CONH2] (Ac-WTICK(DOTA)N[2Nal]HDCWP-NH2; disulfide 4-10)
- % Binding (CT26.DLL3 cells [1]): A (% s ≤25)
- % Internalization (out of bound fraction) (CT26.DLL3 cells [2]): B (25 <% ≤50)
- % Binding (SHP-77 cells [3]): A (% s ≤25)
- % Internalization (out of bound fraction) (SHP-77 cells [4]): B (25 <% ≤50)
- kidney uptake (% IA/g) [5]: C (“C” represents 0 < % IA/g ≤ 10 in)
- tumor uptake (% IA/g) [5]: A (“A” represents 0 < % IA/g ≤ 5 in tumor)
- Kd (DLL3): < 1 nM

SMILES: CC(=O)N[C@@H](Cc1c[nH]c2ccccc12)C(=O)N[C@H](C(=O)N[C@@H](CC(C)(C)C)C(=O)N[C@H]1CSSC[C@@H](C(=O)N[C@@H](Cc2c[nH]c3ccccc23)C(=O)N2CCC[C@H]2C(N)=O)NC(=O)[C@H](CC(=O)O)NC(=O)[C@H](CCCCNC(=O)CN2CCN(CC(=O)O)CCN(CC(=O)O)CCN(CC(=O)O)CC2)NC(=O)[C@H](Cc2ccc3ccccc3c2)NC(=O)[C@H](CC(N)=O)NC(=O)[C@H](CC2CCNCC2)NC1=O)[C@@H](C)O [compound 314, Ac-W-T-(t-Bu-Ala)-C(3)-[3-(4-piperidinyl)-Ala]-N-(2Nal)-Lys(DOTA)-D-C(3)-W-P-CONH2] (Ac-WT[tBuAla]C[Ala(piperidin-4-yl)]N[2Nal]K(DOTA)DCWP-NH2; disulfide 4-10)
- % Binding (CT26.DLL3 cells [1]): B (25 <% ≤50)
- % Internalization (out of bound fraction) (CT26.DLL3 cells [2]): B (25 <% ≤50)
- % Binding (SHP-77 cells [3]): B (25 <% ≤50)
- % Internalization (out of bound fraction) (SHP-77 cells [4]): B (25 <% ≤50)
- kidney uptake (% IA/g) [5]: C (“C” represents 0 < % IA/g ≤ 10 in)
- tumor uptake (% IA/g) [5]: A (“A” represents 0 < % IA/g ≤ 5 in tumor)
- Kd (DLL3): < 1 nM

SMILES: CC(=O)N[C@@H](Cc1c[nH]c2ccccc12)C(=O)N[C@H](C(=O)N[C@H](C(=O)N[C@H]1CSSC[C@@H](C(=O)N[C@@H](Cc2c[nH]c3ccccc23)C(=O)N2CCC[C@H]2C(N)=O)NC(=O)[C@H](CC(=O)O)NC(=O)[C@H](CCCCNC(=O)CN2CCN(CC(=O)O)CCN(CC(=O)O)CCN(CC(=O)O)CC2)NC(=O)[C@H](Cc2ccc3ccccc3c2)NC(=O)[C@H](CC(N)=O)NC(=O)[C@H](CC(N)=O)NC1=O)C(C)(C)C)[C@@H](C)O [compound 315, Ac-W-T-(Tbg)-C(3)-N-N-(2Nal)-Lys(DOTA)-D-C(3)-W-P-CONH2] (Ac-WT[Tle]CNN[2Nal]K(DOTA)DCWP-NH2; disulfide 4-10)
- % Binding (CT26.DLL3 cells [1]): A (% s ≤25)
- % Internalization (out of bound fraction) (CT26.DLL3 cells [2]): C (% >50)
- % Binding (SHP-77 cells [3]): B (25 <% ≤50)
- % Internalization (out of bound fraction) (SHP-77 cells [4]): B (25 <% ≤50)
- kidney uptake (% IA/g) [5]: C (“C” represents 0 < % IA/g ≤ 10 in)
- tumor uptake (% IA/g) [5]: A (“A” represents 0 < % IA/g ≤ 5 in tumor)
- Kd (DLL3): < 1 nM

SMILES: CC(=O)N[C@@H](Cc1c[nH]c2ccccc12)C(=O)N[C@H](C(=O)N[C@@H](CC(C)(C)C)C(=O)N[C@H]1CSSC[C@@H](C(=O)N[C@@H](Cc2c[nH]c3ccccc23)C(=O)N2CCC[C@H]2C(N)=O)NC(=O)[C@H](CC(=O)O)NC(=O)[C@H](CCCCNC(=O)CN2CCN(CC(=O)O)CCN(CC=O)CCN(CC(=O)O)CC2)NC(=O)[C@H](Cc2ccc3ccccc3c2)NC(=O)[C@H](CC(N)=O)NC(=O)[C@H](CC(N)=O)NC1=O)[C@@H](C)O [compound 316, Ac-W-T-(t-Bu-Ala)-C(3)-N-N-(2Nal)-Lys(DOTA)-D-C(3)-W-P-CONH2] (Ac-WT[tBuAla]CNN[2Nal]K(X1)DCWP-NH2; disulfide 4-10)
- % Binding (CT26.DLL3 cells [1]): A (% s ≤25)
- % Internalization (out of bound fraction) (CT26.DLL3 cells [2]): B (25 <% ≤50)
- % Binding (SHP-77 cells [3]): B (25 <% ≤50)
- % Internalization (out of bound fraction) (SHP-77 cells [4]): C (% >50)
- kidney uptake (% IA/g) [5]: D (“D” represents % IA/g > 10 in kidney)
- tumor uptake (% IA/g) [5]: A (“A” represents 0 < % IA/g ≤ 5 in tumor)
- Kd (DLL3): < 1 nM

SMILES: CC(=O)N[C@@H](Cc1c[nH]c2ccccc12)C(=O)N[C@H](C(=O)N[C@H](C(=O)N[C@H]1CSSC[C@@H](C(=O)N[C@@H](Cc2c[nH]c3ccccc23)C(=O)N2CCC[C@H]2C(N)=O)NC(=O)[C@H](CC(=O)O)NC(=O)[C@H](CCCCNC(=O)CN2CCN(CC(=O)O)CCN(CC(=O)O)CCN(CC(=O)O)CC2)NC(=O)[C@H](Cc2ccc3ccccc3c2)NC(=O)[C@H](CC(N)=O)NC(=O)[C@H](CC2CCNCC2)NC1=O)C1CCCCC1)[C@@H](C)O [compound 324, Ac-W-T-(Chg)-C(3)-[3-(4-piperidinyl)-Ala]-N-(2Nal)-Lys(DOTA)-D-C(3)-W-P-CONH2] (Ac-WT[Chg]C[Ala(piperidin-4-yl)]N[2Nal]K(DOTA)DCWP-NH2; disulfide 4-10)
- % Binding (CT26.DLL3 cells [1]): A (% s ≤25)
- % Internalization (out of bound fraction) (CT26.DLL3 cells [2]): C (% >50)
- % Binding (SHP-77 cells [3]): B (25 <% ≤50)
- % Internalization (out of bound fraction) (SHP-77 cells [4]): B (25 <% ≤50)
- Kd (DLL3): < 1 nM
